Among the data in patent publication US12427166B2, “Antifungal agent” (priority 2015, dated 2025) are MIC values, retold here.

Common to all, as to test: EUCAST micro broth dilution in vitro susceptibility testing
Common to all, as to type: cell-based

Assay [1] relates to Fusarium Proliferatum (clinical sample). How it is done:
(§1) The antifungal activity of a composition comprising Poly-(hexamethylene-guanidium chloride) and N,N-didecyl-N-methyl-poly(oxyethyl) ammonium propionate in a ratio of about 1:1 with respect to the molar amount was tested on wild type Aspergillus fumigatus (ATCC 204305) and azole resistant strains (TR 34/L98H and TR46/Y121F/T289A) as well as one clinical sample of Fusarium proliferatum and one clinical sample of Scedosporium Apiospermum was evaluated by means of EUCAST micro broth dilution1. This test method is currently recognized as the gold standard for in vitro susceptibility testing of filamenteus fungi. The test drug was diluted 1:30 in RPMI 1640 in order to obtain a max test concentration of 100 PPM. The test was performed three times for each test strain. The test drug was tested in the concentration range from 1-100 ppm.

In assay [2] the test system is Scedosporium Apiospermum (clinical sample). How it is done:
as §1

Assay [3] deals with Aspergillus fumigatus ATCC 204305 (wild type). How it is done:
as §1

Assay [4] concerns Aspergillus fumigatus TR46/Y121F/T289A (azole resistant). How it is done:
as §1

Assay [5] concerns Aspergillus fumigatus TR34/L98H (azole resistant). The protocol:
as §1

The mark [6] stands for this setting: Aspergillus fumigatus TR46/Y121F/T289A.
Setting [7] is: Aspergillus fumigatus TR34/L98H.

Values after ≈ are worked out from the molar mass of the structure shown. Like-named read-outs stand apart in the source and are kept apart here.

In the case of `C[C@@H]1C/C=C/C=C/C=C/C=C/[C@H](O[C@@H]2O[C@H](C)[C@@H](O)[C@H](N)[C@@H]2O)C[C@@H]2O[C@](O)(C[C@@H](O)C[C@H]3O[C@@H]3/C=C/C(=O)O1)C[C@H](O)[C@H]2C(=O)O` [Natamycin], the MIC came out at 4 mg/L (≈ 6.01 µM) in assay [1] (read-out: MIC); 2 mg/L (≈ 3 µM) in assay [2] (read-out: MIC); 4 mg/L (≈ 6.01 µM) in assay [3] (ATCC204305, read-out: MIC); 2 mg/L (≈ 3 µM) in assay [4] (Aspergillus fumigatus); 4 mg/L (≈ 6.01 µM) in assay [5] (Aspergillus fumigatus).

Turning to `CN(C/C=C/C#CC(C)(C)C)Cc1cccc2ccccc12` [Terbinafin], the MIC in assay [1] was 1 mg/L (≈ 3.43 µM); in assay [2], more than 16 mg/L; in assay [3], 2 mg/L (≈ 6.86 µM); in assay [4] (setting [6]) it was 2 mg/L (≈ 6.86 µM); in assay [5] (setting [7]), 4 mg/L (≈ 13.7 µM).

As for `C[C@@H]1[C@H](O)[C@@H](C)/C=C/C=C/C=C/C=C/C=C/C=C/C=C/[C@H](O[C@@H]2O[C@H](C)[C@@H](O)[C@H](N)[C@@H]2O)C[C@@H]2O[C@](O)(C[C@@H](O)C[C@@H](O)[C@H](O)CC[C@@H](O)C[C@@H](O)CC(=O)O[C@H]1C)C[C@H](O)[C@H]2C(=O)O` [Amphotericin B], the MIC in assay [1] is reported as 1 mg/L (≈ 1.08 µM); in assay [2] it was 4 mg/L (≈ 4.33 µM); in assay [3], 0.25 mg/L (≈ 0.271 µM); in assay [4] (setting [6]) it was 0.25 mg/L (≈ 0.271 µM); in assay [5] (setting [7]) it was 0.25 mg/L (≈ 0.271 µM).

Turning to `CCC(C)n1ncn(-c2ccc(N3CCN(c4ccc(OCC5COC(Cn6cncn6)(c6ccc(Cl)cc6Cl)O5)cc4)CC3)cc2)c1=O` (stereo not shown) [Itraconazol], the minimum inhibitory concentration (MIC) in assay [1] (read-out: MIC) was more than 8 mg/L; in assay [2] (read-out: MIC), 0.25 mg/L (≈ 0.354 µM); in assay [3], 0.125 mg/L (≈ 0.177 µM); in assay [4] (Aspergillus fumigatus), 1 mg/L (≈ 1.42 µM); in assay [5] (Aspergillus fumigatus) it was more than 8 mg/L.

As to `C[C@@H](c1ncncc1F)[C@](O)(Cn1cncn1)c1ccc(F)cc1F` [Voriconazol], the MIC was 4 mg/L (≈ 11.5 µM) in assay [1] (read-out: MIC); 0.25 mg/L (≈ 0.716 µM) in assay [2] (read-out: MIC); 0.5 mg/L (≈ 1.43 µM) in assay [3] (ATCC204305, read-out: MIC); more than 16 mg/L in assay [4] (Aspergillus fumigatus); 4 mg/L (≈ 11.5 µM) in assay [5] (Aspergillus fumigatus).

A word on the MIC: it is the lowest concentration found to suppress growth.
